Calls of active or inactive are those of the source. How the calls were made is not given here.
Test system: 3C-like protease (Infectious bronchitis virus)
Experiment: blockers of SARS 3CLpro activity – biochemical, fluorescence, set 3, late-stage follow-up (AID 493245)
Details: recombinant 3CLpro, fluorogenic substrate cleavage; at 100 µM; hits give high values

| SMILES | inhibition |
| --- | --- |
| CC(C)C(=O)Nc1ccc(N(C(=O)Cn2nnc3ccccc32)C(C(=O)NCc2ccccc2)c2cccc(F)c2)cc1 (stereo unspecified) | 73.5% |
| O=C(Nc1ccc(N(C(=O)Cn2nnc3ccccc32)C(C(=O)NCc2ccccc2)c2cccc(F)c2)cc1)C1CCC1 (stereo unspecified) | 62.5% |
| CC(C)(C)NC(=O)C(c1cccnc1)N(C(=O)c1ccco1)C1CCCCC1 (stereo unspecified) | 4.49% (inactive) |
| CC(C)(C)NC(=O)C(c1cccnc1)N(C(=O)c1ccco1)C1CC2CCC1C2 (stereo unspecified) | 5.71% (inactive) |
| CC(C)(C)NC(=O)C(c1cccnc1)N(C(=O)c1ccco1)C12CC3CC(CC(C3)C1)C2 (stereo unspecified) | 1.27% (inactive) |
| O=C(Nc1ccc(N(C(=O)Cn2nnc3ccccc32)C(C(=O)NCc2ccccc2)c2cccc(F)c2)cc1)C1CC1 (stereo unspecified) | 68.8% |
